Experimental data as given in patent US20140178327A1, “Antimicrobial Ophthalmic Devices” (CooperVision International Holding Company, LP, priority 2012, published 2014).

Experiments:
Assay type in all cases: cell-based
[1] = system: Pseudomonas aeruginosa (PA) ATCC 9027; test: In vitro bioactivity assay; details: for log kill εPLL: Formulation F lens autoclaved in 500 ppm εPLL in PBS
Method: (§1) Cultures were prepared from growing a single colony of each of the bacterial species shown in Table 3 below in 50 ml. trypticase soy broth (TSB) overnight at 37° C. on a rotary shaker. 1 ml of each culture was centrifuged, and the bacterial pellet resuspended in 1.0 ml of the diluent shown in Table 3, where PBST is 19 mM PBS at pH 7.3 (0.83 wt. % NaCl, 0.03 wt. % sodium phosphate monobasic, and 0.24% sodium phosphate dibasic) with 0.05% Tween. For each bacterial species, a suspension of approximately 10^8CFU/mL was prepared by diluting the bacterial suspension to achieve the optical density indicated in Table 3.
(§2) Each suspension was further diluted to approximately 10^4CFU/mL (low inoculum) or 10^7CFU/mL (high inoculum) using the above diluents to make the bacterial inoculums for testing bioactivity of lenses.
(§3) Each lens was rinsed in 2.5 ml sterile PBS for a few seconds, and transferred into an individual well of a 24-well plate containing 1.0 ml of bacteria inoculum. The plates were incubated at 37° C. with gentle shaking. The original inoculums were incubated for the duration of the experiment to confirm the concentrations at each sample recovery time point. At the time point tested, each lens was removed from its well and transferred to a well of a 12-well plate containing 2.5 mL of sterile PBST. The plate was gently swirled gently for about 30 seconds. This step was repeated once for each lens. Such 2× wash step is referred to herein as the bacterial wash step.
(§4) Each washed lens was placed in a microcentrifuge tube containing 1 ml of Dey-Engley (DE) neutralizing broth and adhered bacteria were removed by a combination of sonication for about 2 minutes and vortexing for about 10 minutes. Serial dilutions were made for each recovered cell suspension using DE neutralizing broth and suitable dilutions were plated onto TSA. Plates were incubated overnight at 37° C. and CFUs were counted.
(§5) The CFU for each plate was multiplied by the dilution factor (DF) as well as the plating dilution factor (PDF). The total CFUs recovered for a given sample were then converted to the log 10. To calculate the log kill of an antimicrobial lens, the log of CFU/lens of the antimicrobial lens is subtracted from that of the control lens. For example, if the mean log 10 value of an antimicrobial lens is 1.05 and the mean log 10 value of an otherwise identical control lens lacking the active antimicrobial agent is 5.52, the log kill is 5.52−1.05=4.47.

[2] = system: Serratia marcescens (SM) ATCC 6538; test: In vitro bioactivity assay; details: for log kill of SM: ionic silicone hydrogel contact lens with about 10 μg PQ-1 and/or about 200 μg εPLL, 24 hour incubation, 10^7 inoculum; for log kill εPLL: Formulation F lens autoclaved in 500 ppm εPLL in PBS
Method: as §1, §2, §3, §4, §5

[3] = system: Staphylococcus aureus (SA) ATCC 13880; test: In vitro bioactivity assay; details: for log kill of SA: ionic silicone hydrogel contact lens with about 10 μg PQ-1 and/or about 200 μg εPLL, 24 hour incubation, 10^7 inoculum; for log kill εPLL: Formulation F lens autoclaved in 500 ppm εPLL in PBS
Method: as §1, §2, §3, §4, §5

[4] = system: Pseudomonas aeruginosa (PA) ATCC 9027; test: In vitro biofilm assay; details: for Log εPLL (log CFU recovered per εPLL lens): 10^7 CFU/mL, 2 hours adhesion, 24 hours biofilm growth; for Log Reduction: versus control lens
Method: (§6) Lenses at the 0 hour time point and from the 168 hour time point were used to test whether they supported biofilm formation. The lenses were rinsed for 5 seconds in 2.5 mL of sterile PBS then transferred into an individual well of a 24-well plate containing 1.0 mL of bacterial inoculum at approximately 10^7CFU/mL, prepared as described in Example 5. The plates were incubated for 2 hours on a 37° C. with gentle rotary agitation. The remaining inoculum, i.e. not incubated with lenses, was also incubated on the shaker for the duration of each experiment to determine the cfu/mL of the inoculum at t=2 hr and t=24 hr. After 2 hours incubation each lens was washed using the bacterial wash step described in Example 5 then placed on an insert of a 24-well plate for biofilm formation as described below. The inoculum concentration (at t=0 hr and 2 hr) was confirmed by serial dilution, plating onto TSA, incubating overnight at 37° C. and colony counting.
(§7) Custom-made mushroom-shaped stainless steel inserts, depicted in FIG. 1, were placed in each well of a 24-well plate. The cap portion of each insert has a diameter of approximately 14 mm and a curvature to match the posterior surface of a contact lens. The height of each insert is approximately 11 mm. One mL of sterile media/diluent was added to each well. Each preloaded, washed lens (as described above) was placed on the top (cap portion) of an insert, convex side up. The dimensions of the inserts and the volume of the media are such that the periphery of the placed lens is in contact with the media/diluent and the center portion of the lens is at the liquid/air interface. Plates were loosely sealed to prevent evaporation, and incubated for 24 hours at 37° C., with rotary agitation. After incubation, each lens was subjected to the bacterial wash step as described in Example 5. Bacteria were recovered from the washed lenses and log kill calculated as described above in Example 5. Each t-24 hr inoculum concentration was confirmed as described above for t=0 and t=2 hr time points.

[5] = system: Serratia marcescens (SM) ATCC 6538; test: In vitro biofilm assay; details: for Log εPLL (log CFU recovered per εPLL lens): 10^7 CFU/mL, 2 hours adhesion, 24 hours biofilm growth; for Log Reduction: versus control lens
Method: as §6, §7

[6] = system: Staphylococcus aureus (SA) ATCC 13880; test: In vitro biofilm assay; details: for Log εPLL (log CFU recovered per εPLL lens): 10^7 CFU/mL, 2 hours adhesion, 24 hours biofilm growth; for Log Reduction: versus control lens
Method: as §6, §7

[7] = Formulation F lenses without εPLL, 72 hours in PBS plus PQ-1, high inoculum (10^7), 24-hour incubation
[8] = SM, Formulation F lenses without εPLL, 72 hours in PBS plus PQ-1, high inoculum (10^7), 24-hour incubation
[9] = SA, Formulation F lenses without εPLL, 72 hours in PBS plus PQ-1, high inoculum (10^7), 24-hour incubation
[10] = lenses packaged in PBS containing 30 μg/ml PQ-1

**Q.** Which results are given for polyquarternium-1 [PQ-1]?
**A.** log kill 10 μ/ml PQ-1 ([1]; 24 hr, Formulation F lens without εPLL): −0.23; log kill at 10 μg/ml PQ-1 [1, 7]: −0.23; log kill at 30 μg/ml PQ-1 [1, 7]: 0.16; log kill at 100 μg/ml PQ-1 [1, 7]: 3.43; log kill 10 μ/ml PQ-1 ([2]; SM, 24 hr, Formulation F lens without εPLL): 0.55; log kill at 10 μg/ml PQ-1 [2, 8]: −0.55; log kill at 30 μg/ml PQ-1 [2, 8]: 0.55; log kill at 100 μg/ml PQ-1 [2, 8]: 0.31; log kill of SM [2]: no significant activity; log kill 10 μ/ml PQ-1 ([3]; SA, 24 hr, Formulation F lens without εPLL): −0.74; log kill at 10 μg/ml PQ-1 [3, 9]: −0.54; log kill at 30 μg/ml PQ-1 [3, 9]: 1.47; log kill at 100 μg/ml PQ-1 [3, 9]: 3.04; log kill of SA [3]: no significant activity; antimicrobial activity in biofilm assay [4, 10]: lack of antimicrobial activity; antimicrobial activity in biofilm assay [5, 10]: lack of antimicrobial activity

**Q.** ε-polylysine [εPLL] was tested. Which “log kill εPLL” value ([1]; 2 hr) did it give?
**A.** 2.63

**Q.** What about the “log kill εPLL” value ([1]; 6 hr) of the same substance?
**A.** 4.04

**Q.** What about the “log kill εPLL” value ([1]; 24 hr) of the same substance?
**A.** ≧4.04

**Q.** What about the “log kill εPLL” value ([2]; SM, 2 hr) of the same substance?
**A.** 0.19

**Q.** And the “log kill εPLL” value ([2]; SM, 6 hr)?
**A.** 0.74

**Q.** And the “log kill εPLL” value ([2]; SM, 24 hr)?
**A.** 1.63

**Q.** What about the “log kill of SM” value [2] of the same substance?
**A.** ~1.5 log

**Q.** And the “log kill εPLL” value ([3]; SA, 2 hr)?
**A.** −0.06

**Q.** And the “log kill εPLL” value ([3]; SA, 6 hr)?
**A.** 0.37

**Q.** And the “log kill εPLL” value ([3]; SA, 24 hr)?
**A.** 1.85

**Q.** What about the “log kill of SA” value [3] of the same substance?
**A.** ~2 log

**Q.** What about the “Log εPLL (log CFU recovered per εPLL lens)” value ([4]; 0 hr wash lenses) of the same substance?
**A.** 0.9

**Q.** And the “Log Reduction” value ([4]; 0 hr wash lenses)?
**A.** 5.0

**Q.** What about the “Log εPLL (log CFU recovered per εPLL lens)” value ([4]; 168 hr wash lenses) of the same substance?
**A.** 0.6

**Q.** And the “Log Reduction” value ([4]; 168 hr wash lenses)?
**A.** 4.9

**Q.** What about the “Log εPLL (log CFU recovered per εPLL lens)” value ([5]; 0 hr wash lenses) of the same substance?
**A.** 1.0

**Q.** And the “Log Reduction” value ([5]; 0 hr wash lenses)?
**A.** 3.5

**Q.** What about the “Log εPLL (log CFU recovered per εPLL lens)” value ([5]; 168 hr wash lenses) of the same substance?
**A.** 3.8

**Q.** What about the “Log Reduction” value ([5]; 168 hr wash lenses) of the same substance?
**A.** 1.7

**Q.** And the “Log εPLL (log CFU recovered per εPLL lens)” value ([6]; 0 hr wash lenses)?
**A.** 0.8

**Q.** What about the “Log Reduction” value ([6]; 0 hr wash lenses) of the same substance?
**A.** 3.7

**Q.** And the “Log εPLL (log CFU recovered per εPLL lens)” value ([6]; 168 hr wash lenses)?
**A.** 3.1

**Q.** What about the “Log Reduction” value ([6]; 168 hr wash lenses) of the same substance?
**A.** 2.4
